Data as given in patent EP1377579B1 (Aventis Pharmaceuticals Inc., priority 2000, dated 2002).
Where two headings read alike, the source gives them in different places.

Experiments:
cdk1/cyclin B = cdk1/cyclin B (Homo sapiens, UniProt P06493); experiment: Cyclin-dependent kinase assay, cdk1/cyclin B; details: CDK1 IC50, nM, Histone H1, 10 µM ATP
Jurkat = experiment: In vitro proliferation assay (MTT), Jurkat; type: cell-based; details: Homo sapiens, read-out: Jurkat Leuk. (IC50 µM)
Method in brief: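 IC50 values come from live-cell estimates based on MTT reduction measured at 570 nm after 3 days of compound treatment. Cells are seeded at 1000 to 2500 per well in serum-supplemented RPMI 1640. They are stained with MTT for 2 to 4 hr at 37 C and the dye is then taken up in DMSO.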

MDA-MB-435 = experiment: In vitro proliferation assay (MTT), MDA-MB-435; type: cell-based, human; details: Homo sapiens
Method in brief: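 Step one: plate 1000 to 2500 cells per well and let them recover overnight. Step two: treat with compound for 3 days. Step three: add MTT, dissolve dye in DMSO, read absorbance at 570 nm and determine IC50.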

HL-60 Human Leukemia = experiment: HL-60 human leukemia xenograft in nude mice; type: in vivo; set-up: key: tumor volume = ½(a × b²) from caliper diameters, in mm^3
Method: (§1) Antitumor efficacy is assessed using two subcutaneous human tumor xenograft models. The studies are performed using conventional assay techniques. Briefly, HL-60 (leukemia, 5 x10^5 cells) and PC-3 (prostate, 5 x 10^6 cells) tumor cells are injected subcuateously into nude mice (Crl-CD1-Br-nu, Charles River Laboratory, Wilmington, MA). Dosing with compounds began when tumors reached 50 to 100 mm^3. The dose route/schedule for the test compounds is ip/qld (5x/wk). The test doses are set based on the maximum tolerated dose (MTD). […] The test doses for the efficacy studies are set at 1/3rd the MTD (low dose) and the MTD (high dose). The results are shown in Tables 4 and 5 (HL-60, leukemia) (PC-3, prostate cancer). The length of the treatment phase is dependent on the tumor growth rate for the two models. This treatment phase is typically about 3 weeks for the HL-60 model and about 5 weeks for the PC-3 model. […] Dosing with flavopiridol is for the same time frame as for the experimental compounds in both xenograft models. Tumor volume (twice weekly) and body weights (once weekly) are monitored throughout the course of the treatment phase of the experiment. Tumor sizes are measured by external caliper measurements of protruding tumor. Volumes are calculated using the following formula: volume =½ (a x b2), where b is the smaller of two perpendicular diameters.

[1] = tested on: PC-3 Human Prostate Tumors; experiment: PC-3 human prostate tumor xenograft in nude mice; type: in vivo; set-up: unit not given here
Method: as §1

Colo-205 = experiment: In vitro proliferation assay (MTT), Colo-205; type: cell-based; details: Homo sapiens
Method in brief: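 After 3 days of compound exposure, MTT was added to Colo-205 cultures for 2–4 h at 37 °C. Formazan was dissolved in DMSO and absorbance read at 570 nm. Cells had been plated at 1000–2500/well and left to recover overnight; IC50 values came from the raw readings.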

[2] = Red blood cell binding, human whole blood; type: in vitro ADME; details: 30 minutes at 37°C, 500 ng/ml
Method: Compounds, including one positive control, are assessed for red blood cell (RBC) uptake, using a modified procedure based on the protocol reported in Sun, J.X.S., et al. High-performance liquid chromatographic analysis, plasma protein binding and red blood cell partitioning of phenprobamate. Biopharmaceutics and Drug Disposition, 8 (1987) 341-351.
Briefly, RBC uptake is evaluated by comparison of the levels in spiked plasma (n=3) and plasma isolated from spiked whole blood (n=3). Compounds are incubated with human and mouse whole blood, respectively, for 30 minutes at 37°C using a nominal concentration of 500 ng/ml. Following centrifugation, the plasma is removed and submitted for analysis. Each compound is also spiked into blank plasma at a nominal concentration of 500 ng/ml, and submitted for analysis. Levels in the two plasma samples (Cp' and Cp in the equation below) and the blood hematocrit are used to determine the red blood cell to plasma ratio (Crbc/Cp). (Crbc)/(Cp) = (Cpʹ)/(Cp•H)-((1-H))/(H) [formula] In equation 1, Cp' is the level of drug in the spiked "blank" plasma, Cp is the level of drug in the plasma of spiked whole blood, and H is the hematocrit. The hematocrit values are determined as 0.4 for human whole blood and 0.41 for mouse whole blood. The samples are analyzed with ESI LC/MS, using positive ion detection with an internal standard.
The red blood cell to plasma ratio is determined for each compound using equation 1. Tables 6 and 7 summarize the respective mean Crbc/Cp values and standard deviations for mouse and human whole blood, respectively, in descending order based on the red blood cell to plasma ratio, where"*" denotes Positive Control, and "ND" denotes Not Determined. MDL 108552 is included as a positive control for red blood cell uptake. Table 6. Red Blood Cell to Plasma Ratio for compounds in mouse whole blood

[3] = MTT assay, value (SD, n) where given
[4] = MDA-MB-435, MTT assay, value (SD, n) where given, read-out: MB-435 Breast (IC50 µM)
[5] = COLO 205, MTT assay, value (SD, n) where given, read-out: Colo-205 Colon (IC50 µM)
[6] = MDA-MB-435, read-out: MB-435 Breast (IC50 µM)
[7] = COLO 205, read-out: Colo-205 Colon (IC50 µM)

cdk1/cyclin B, sequence (P06493 whole entry): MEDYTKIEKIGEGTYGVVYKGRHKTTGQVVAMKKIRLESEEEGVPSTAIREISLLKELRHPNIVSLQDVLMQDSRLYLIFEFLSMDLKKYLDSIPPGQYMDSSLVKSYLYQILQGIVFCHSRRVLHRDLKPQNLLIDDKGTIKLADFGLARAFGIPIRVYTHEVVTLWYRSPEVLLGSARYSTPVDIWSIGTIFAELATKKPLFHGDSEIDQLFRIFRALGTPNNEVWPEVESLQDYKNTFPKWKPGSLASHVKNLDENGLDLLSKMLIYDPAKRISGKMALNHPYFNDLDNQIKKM
cdk1/cyclin B, sequence (P14635 whole entry partner): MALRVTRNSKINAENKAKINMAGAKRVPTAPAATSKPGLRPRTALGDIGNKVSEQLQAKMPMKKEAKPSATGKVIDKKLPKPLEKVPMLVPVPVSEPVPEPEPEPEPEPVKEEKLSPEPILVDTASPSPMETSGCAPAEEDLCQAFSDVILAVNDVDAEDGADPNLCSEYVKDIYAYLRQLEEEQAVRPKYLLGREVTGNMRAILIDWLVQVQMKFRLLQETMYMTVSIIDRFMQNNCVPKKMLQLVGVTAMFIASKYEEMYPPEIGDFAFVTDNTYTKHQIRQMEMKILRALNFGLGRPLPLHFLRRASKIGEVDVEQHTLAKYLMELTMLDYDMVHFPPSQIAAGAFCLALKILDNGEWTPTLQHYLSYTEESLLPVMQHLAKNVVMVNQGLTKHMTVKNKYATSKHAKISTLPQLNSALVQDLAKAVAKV

Structure (SMILES)	IC50 (cdk1/cyclin B)	IC50 (Jurkat; [3])	IC50 (MDA-MB-435; [4])	HL60 Mean Vol. ± SD (HL-60 Human Leukemia; Table 5, dose 3 mg/kg ip)	HL60 Mean Vol. ± SD (HL-60 Human Leukemia; Table 5, dose 10 mg/kg ip)	PC-3 Mean Vol. ± SD ([1]; Table 5, dose 3 mg/kg ip)	PC-3 Mean Vol. ± SD ([1]; Table 5, dose 10 mg/kg ip)	IC50 (Colo-205; [5])	Mean Red Blood Cell to Plasma Ratio [2]	IC50 (Jurkat)	IC50 (MDA-MB-435; [6])	HL60 Mean Vol. ± SD (HL-60 Human Leukemia; Table 5, dose 1 mg/kg ip)	PC-3 Mean Vol. ± SD ([1]; Table 5, dose 1 mg/kg ip)	IC50 (Colo-205; [7])	HL60 Mean Vol. ± SD (HL-60 Human Leukemia; Table 4, dose 1 mg/kg ip)	HL60 Mean Vol. ± SD (HL-60 Human Leukemia; Table 4, dose 3 mg/kg ip)	PC-3 Mean Vol. ± SD ([1]; Table 4, dose 1 mg/kg ip)	PC-3 Mean Vol. ± SD ([1]; Table 4, dose 3 mg/kg ip)	HL60 Mean Vol. ± SD (HL-60 Human Leukemia; Table 4, dose 10 mg/kg ip)	PC-3 Mean Vol. ± SD ([1]; Table 4, dose 10 mg/kg ip)
Cl.Cl.N[C@H]1CC[C@H](Nc2nc(NC3CCN(C(=O)c4cccc(C(F)(F)F)c4F)CC3)c3ncn(C4CCCC4)c3n2)CC1 [compound 12, trans-1-{4-[2-(4-Amino-cyclohexylamino)-9-cyclopentyl-9H-purin-6-ylamino]-piperidin-1-yl}-1-(2-fluoro-3-trifluoromethyl-phenyl)-methanone dihydrochloride]	88 nM	0.48 µM	0.28 µM	4948 ± 2803	2624 ± 2108	1063 ± 693	1107 ± 606	0.21 µM	3.6											
Cl.Cl.N[C@H]1CC[C@H](Nc2nc(NC3CCN(C(=O)Oc4ccc(Br)cc4)CC3)c3ncn(C4CCCC4)c3n2)CC1 [compound 81, trans-4-[2-(4-Amino-cyclohexylamino)-9-cyclopentyl-9H-purin-6-ylamino]-piperidine-1-carboxylic acid 4-bromo-phenyl ester dihydrochloride]	16 nM			5104 ± 4014		1007 ± 1120			5.3	0.1 µM	0.1 µM	5802 ± 2996	1258 ± 523	0.03 µM						
COC(=O)c1ccc(OC(=O)N2CCC(Nc3nc(N[C@H]4CC[C@H](N)CC4)nc4c3ncn4C3CCCC3)CC2)cc1.Cl.Cl [compound 83, trans-4-[2-(4-Amino-cyclohexylamino)-9-cyclopentyl-9H-purin-6-ylamino]-piperidine-1-carboxylic acid 4-methoxycarbonyl-phenyl ester dihydrochloride]	19 nM			5906 ± 2948	4057 ± 2599	899 ± 593	1426 ± 1131		4.1	0.14 µM	0.17 µM			0.07 µM						
COc1ccc(OC(=O)N2CCC(Nc3nc(N[C@H]4CC[C@H](N)CC4)nc4c3ncn4C3CCCC3)CC2)cc1.Cl.Cl [compound 84, trans-4-[2-(4-Amino-cyclohexylamino)-9-cyclopentyl-9H-purin-6-ylamino]-piperidine-1-carboxylic acid 4-methoxy-phenyl ester dihydrochloride]	19 nM			4886 ± 3467		1386 ± 752			2.0	0.12 µM	0.1 µM	4790 ± 6912	770 ± 567	0.03 µM						
Cl.Cl.N[C@H]1CC[C@H](Nc2nc(NC3CCN(C(=O)Oc4ccc(F)cc4)CC3)c3ncn(C4CCCC4)c3n2)CC1 [compound 87, trans-4-[2-(4-Amino-cyclohexylamino)-9-cyclopentyl-9H-purin-6-ylamino]-piperidine-1-carboxylic acid 4-fluoro-phenyl ester dihydrochloride]	15 nM								8.4	0.2 µM	0.11 µM			0.16 µM	3718 ± 2715	7096 ± 3079	3271 ± 2262	1396 ± 958		
Cl.Cl.N[C@H]1CC[C@H](Nc2nc(NC3CCN(C(=O)Oc4ccc(Cl)cc4)CC3)c3ncn(C4CCCC4)c3n2)CC1 [compound 88, trans-4-[2-(4-Amino-cyclohexylamino)-9-cyclopentyl-9H-purin-6-ylamino]-piperidine-1-carboxylic acid 4-chloro-phenyl ester dihydrochloride]	35 nM								2.6	0.02 µM	0.02 µM			0.04 µM	4415 ± 2740	2624 ± 2108	1601 ± 1348	2278 ± 2110		
Cl.Cl.N[C@H]1CC[C@H](Nc2nc(NC3CCN(C(=O)Oc4ccc([N+](=O)[O-])cc4)CC3)c3ncn(C4CCCC4)c3n2)CC1 [compound 89, trans-4-[2-(4-Amino-cyclohexylamino)-9-cyclopentyl-9H-purin-6-ylamino]-piperidine-1-carboxylic acid 4-nitro-phenyl ester dihydrochloride]	20 nM								4.2	0.07 µM	0.06 µM			0.01 µM	2444 ± 2291	4278 ± 2801	2572 ± 1052	866 ± 384		
Cl.Cl.N[C@H]1CC[C@H](Nc2nc(NC3CCN(S(=O)(=O)c4ccc(F)cc4)CC3)c3ncn(C4CCCC4)c3n2)CC1 [compound 106, trans-N^2-(4-Amino-cyclohexyl)-9-cyclopentyl-N^6-[1-(4-fluoro-benzenesulfonyl)-piperidin-4-yl]-9H-purine-2,6-diamine dihydrochloride]	8 nM	0.19 µM	0.12 µM					0.13 µM	3.9						4271 ± 3851	7368 ± 2592	1860 ± 741	1482 ± 906		
Cl.Cl.N#Cc1ccc(S(=O)(=O)N2CCC(Nc3nc(N[C@H]4CC[C@H](N)CC4)nc4c3ncn4C3CCCC3)CC2)cc1 [compound 109, trans-N^2-(4-Amino-cyclohexyl)-9-cyclopentyl-N^6-[1-(4-cyano-benzenesulfonyl)-piperidin-4-yl]-9H-purine-2,6-diamine dihydrochloride]	18 nM	0.44 µM	0.11 µM					0.18 µM	5.0							2597 ± 2240		1807 ± 1388	3466 ± 3730	979 ± 734
COC(=O)c1ccccc1S(=O)(=O)N1CCC(Nc2nc(N[C@H]3CC[C@H](N)CC3)nc3c2ncn3C2CCCC2)CC1.Cl.Cl [compound 111, trans-2-{4-[2-(4-Amino-cyclohexylamino)-9-cyclopentyl-9H-purin-6-ylamino]-piperidine-1-sulfonyl}-benzoic acid methyl ester dihydrochloride]	17 nM	1.05 µM	0.43 µM					0.09 µM	1.2							3798 ± 2431		1083 ± 704	2387 ± 1282	2114 ± 1320
